In US20060013804A1, “Modulation of stem cell differentiation by modulation of caspase-3 activity” (Ottawa Health Research Institute, priority 2002, published 2006):

Columns and labels:
Type in all cases: cell-based, mouse
[1] = test system: PARP cleavage; test: PARP cleavage by Western blot in differentiating C2C12 myoblasts; settings: C2C12, treated vs untreated
Method: Protein isolation, immunoblot analyses and immunocytochemistry. Cells from C2C12 and primary myoblast cultures were washed with ice-cold PBS and lysed on ice for 45 minutes in modified-RIPA buffer containing 20 mM NaF, 5 mM Na3VO4 and 10 μg/ml each of aprotinin, leupeptin, pepstatin and PMSF. Total protein was measured using the BCA protein assay (Pierce). Immunoblot analyses were performed as described (Creasy, C. L., & Chernoff, J. (1995) J. Biol. Chem. 270, 21695-21700) using antibodies for MST1, MKK6, p38γ, and p38α (Upstate), p38 and MEF2C (Cell Signaling Technologies), myogenin F5D and myosin heavy chain MF20 mAb (Developmental Hybridoma Bank), and active caspase-3 (Biovision).
Cells were fixed after 0, 2 and 4 days of differentiation and stained with the myosin heavy chain antibody MF20. […] In contrast, differentiation was more evident in cells that were incubated with caspase-8 inhibitor, z-LETD.fmk (FIG. 2B bottom panel, C).

[2] = test system: ASK1; test: Immunoprecipitation/kinase assay of ASK1 from neurospheres; settings: differentiation media, vs DMSO
Method: Immunoprecipitation/Kinase activity assays: Immunoprecipitation/kinase analyses were performed as previously described (Fernando, P., et al., (2002) Proc Natl Acad Sci USA 99, 11025-11030). Cellular lysates from neurospheres were generated as described above. Antibodies against apoptotic signal-regulating kinase 1 (ASK1) (Upstate, USA), p21 activated kinase 1 (PAK1) (Cell Signaling Technologies, USA), and p38 MAPK (Santa Cruz, USA) were used to immunoprecipitate respective proteins. Samples were mixed with Protein G-sepharose beads for 1 h, washed and then mixed with kinase assay buffer containing myelin basic protein (MBP) and γ-32P[ATP]. Samples were reacted at 30° C. for 30 min and separated using SDS-PAGE. In some instances, samples were transferred to PVDF membrane following electrophoresis. To quantify kinase activities, MBP acrylamide bands were excised and solubilized in scintillation fluid prior to 32P-liquid scintillation analyses. In all cases, an activated recombinant mitogen activated protein kinase activated protein-2 (MAPKAP kinase-2) (Upstate, USA) was used as an internal control for liquid scintillation analyses.
Caspase 3, when processed to its active form, is capable of targeting and activating many protein kinases that mediate cellular differentiation. […]

[3] = test system: CD1 neurosphere cells; test: Annexin-V-PI flow cytometry of differentiating neurosphere cells
Method: Neurospheres were sub-cultured no more than once per collection. The differentiation of neurospheres was initated by plating spheres on poly-L-ornithine coated plates in NeuroCult Differentiation Medium in the absence of bFGF, as per manufacturer's instructions. […] All cultures received fresh media and inhibitor every 24 h for the duration of the experiment. Neurospheres from caspase 3 null embryos (Fernando, P., et al., (2002) Proc Natl Acad Sci USA 99, 11025-11030) were cultured as described above.
Flow Cytometry: Annexin-V-propidium iodide (PI) analysis of apoptotic and nectrotic cells was performed using an Annexin-V-FLUOS staining kit (Roche, USA). Analyses were performed using a Beckman-Coulter ALTRA flow cytometer. To detect Annexin-V and PI positive cells, flow cytometric channels were gated using cells without stain, stained with PI alone and stained with Annexin-V alone. Cells that had dissociated from their neurosphere bodies were gently collected without excessive disruption of the sphere/cell body. These cells were chosen for flow cytometry analyses. Each sample was gated to control for cellular debris.
As in most developmental processes, a population of cells is required to undergo apoptosis prior to the differentiation of a separate pool of cells. Clearly, the inhibition of caspase 3 may adversely affect this process. To address this issue, we measured the degree of apoptosis that occurred during differentiation in caspase 3 inhibited and uninhibited cells using the specific caspase 3 peptide inhibitor zDEVD.fmk and Annexin V-propidium iodide (PI) staining coupled to cytometric analyses (FIG. 15). Annexin V detects cells that are either apoptotic or necrotic whereas propidium iodide is able to detect necrotic cells. Together, Annexin-V-PI analyses identify the population of cells that are apoptotic, i.e. Annexin-V positive/PI negative. To control for the heterogeneity of cells within neurospheres as described previously (Bez et al., (2003) Brain Res 993, 18-29), we performed our analyses on cells that had dissociated from the neurosphere. […]

## COC(=O)CC[C@H](NC(=O)[C@H](CC(=O)OC)NC(=O)OCc1ccccc1)C(=O)N[C@H](C(=O)N[C@@H](CC(=O)OC)C(=O)CF)C(C)C [z-DEVD.fmk]
[1]; listed as Z-DEVD.fmk
  PARP cleavage products: Comparable levels of PARP cleavage
[1]; listed as z-DEVD
  PARP cleavage products: accumulated to a similar degree
[2]; listed as DEVD
  ASK1 kinase activity: decrease
[2]; listed as z-DEVD
  ASK1 kinase activity: reduced
[3]; 12 h in differentiation media, cells dissociated from neurosphere
  Annexin-V positive/PI positive cell population: approximately 27%
[3]; 24 h in differentiation media
  level of apoptosis (Annexin-V-PI): 33%
[3]; inhibited relative to uninhibited cells
  effect on apoptosis during neurosphere differentiation: did not affect apoptosis
